Measurements: ChEMBL document CHEMBL1155649, “A new inhibitor of 5'-hydroxyaverantin dehydrogenase, an enzyme involved in aflatoxin biosynthesis, from Trichoderma hamatum” (J Nat Prod, 2000)
Activity calls are given as the source filed them. The rule behind the calls is not given here.

Tests used:
[1] = Inhibition of malate dehydrogenase at 3 mM
[2] = Inhibition of Aspergillus parasiticus NIAH-26 5'-hydroxyaverantin dehydrogenase

CO[C@H]1[C@@H](O)[C@@]2(C)c3ccc4c(c3-c3c2c(coc3=O)[C@@H]1O)CCC4=O (relative stereo)
Activity [1]: inactive
IC50 [2]: 250 µM
